Numbered stars: 1 amine (or outer) side, 2 acyl side, 3 side chain; on linkers, the order of the positions; unused ones are H or OH. Square brackets hold non-standard residues; d marks the D form. Peptide text beside a SMILES is read from it. NMeTrp(1-(4-Br-benzyl)) = CN[C@@H](Cc1cn(Cc2ccc(Br)cc2)c2ccccc12)C(=O)O; X17 = CN([C@@H](Cc1cn(-c2ccccc2)c2ccccc12)C(=O)[*:2])[*:1]; Butanoyl(2R-oxy,4-CN) = N#CCC[C@@H](O)C(=O)O; Nva(5,5,5-F3) = N[C@@H](CCC(F)(F)F)C(=O)O; Abu(4,4,4-F3) = N[C@@H](CC(F)(F)F)C(=O)O; NMeBta = CN[C@@H](Cc1csc2ccccc12)C(=O)O; NMeL = CN[C@@H](CC(C)C)C(=O)O; NMeA = CN[C@@H](C)C(=O)O
What was measured:
Type in all cases: cell-based
[1] = tested on: TNFα-FL/Gaussia Luciferase; assay: Dox induced TNFα-FL-Gluc assay; conditions: Flp-In 293 T-REx cells, doxycycline, 24 hours; read-out: TNFa FL Gluc IC50
Procedure, shortened: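 Stable Flp-In 293 T-REx line expressing full-length TNFα (aa 1-233) fused at its C-terminus to Gaussia luciferase under doxycycline-inducible control. Cells plated the day before, then given compound dilutions in DMSO/media containing doxycycline and incubated at 37 °C, 5% CO2.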

[2] = tested on: JJN3 plasma cell leukemia cell line; assay: JJN-3 assay (Alamar blue); conditions: Homo sapiens, 72 h
Description: (§1) BT474 is a human breast tumor cell line. JJN3 is a human plasma cell leukemia cell line. […] Cells were seeded at 100 000 cells/mL. Aliquots of 5000 cells (50 μL) were added to each well in black, clear bottom 96-well plates. Compounds or control (50 uL of 1% DMSO in cell culture medium) were added to the cells to the indicated final concentrations and cells were incubated for 72 h (unless otherwise specified). After incubation was complete, Alamar blue (10 uL of a 1 mg/mL solution) was added to each well and plates were incubated for 5 h. Fluorescence was then measured (excitation 545 nm, emission 590 nm) and is reported as […] normalized to DMSO control.

[3] = tested on: PD1-ss+10aa/Gaussia Luciferase; assay: Dox induced PD1-ss-Gluc assay; conditions: Flp-In 293 T-REx cells, doxycycline, 24 hours; read-out: PD1ss Gluc IC50
Procedure, shortened: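 Stable Flp-In 293 T-REx line expressing doxycycline-inducible Gaussia luciferase fused to the PD1 signal sequence plus 10 amino acids. Cells plated the day before, then exposed to compound dilutions in DMSO/media containing doxycycline at 37 °C, 5% CO2.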

[4] = tested on: BT474 breast tumor cell line; assay: BT474 assay (Alamar blue); conditions: Homo sapiens, BT-474, 72 h
Description: as §1

HER3ss-Gluc = assay: HER3ss assay; conditions: HEK-293T T-rex cells, transient transfection, doxycycline, 24 h; read-out: HER3 ss IC50
Procedure, shortened: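 HEK-293T T-REx cells were transiently transfected with HER3 signal sequence (plus four mature-domain residues) fused upstream of mature Gaussia luciferase. Cells were induced with doxycycline (1 μg/ml) and exposed to increasing compound concentrations for 24 h, then secreted luciferase in the conditioned medium was read by luminescence.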

[5] = tested on: Prl-ss+10aa/Gaussia Luciferase; assay: Prl-ss-Gluc assay (constitutively active or 24 hr Dox inducible); conditions: Flp-In 293 T-REx cells, 24 hours; read-out: Prl IC50
Procedure, shortened: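 Stable Flp-In 293 T-REx lines express Prl signal sequence+10aa fused to Gaussia luciferase, either constitutively (pcDNA5/FRT) or under the T-REx promoter (pcDNA5/FRT/TO). Cells plated the day before; compounds in DMSO/media (with doxycycline for the inducible line, 24 h) incubated at 37 °C, 5% CO2.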

[6] = tested on: U266B1 multiple myeloma cell line; assay: U266 assay (cell viability, Celltiter-Glo); conditions: Homo sapiens, U-266; 48 hours, cell viability
Description: Cells were plated in 384-well tissue culture plates and treated with compound dilutions in DMSO/media. Plates were incubated at 37° C., 5% CO2 for 48 hours. After 48 hours, Celltiter-Glo@ (Promega) was added to each well and luciferase signal was quantified using Tecan Infinite M1000 Pro for cell viability determination.

[7] = tested on: NCI-H929 multiple myeloma cell line; assay: H929 assay (cell viability, Celltiter-Glo); conditions: Homo sapiens, NCI-H929; 48 hours, cell viability; read-out: H929 EC50
Procedure, shortened: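 Cells plated in RPMI 1640 with 10% FBS and 2 mM glutamine, treated with compound dilutions in DMSO/media. Incubation 48 h at 37° C, 5% CO2. Viability from luciferase luminescence signal.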

[8] = tested on: VCAMss+10aa/Gaussia Luciferase; assay: VCAM-ss-Gluc assay (constitutively active or Dox induced); conditions: Flp-In 293 T-REx cells, 24 hours
Description: Assays Constitutively Active VCAM-ss-Gluc Assay
Transfected cells were selected for resistance to the selectable markers Hygromycin and Blasticidin to create a stable cell line that constitutively expressed the VCAMss+ 10aa/Gaussia Luciferase fusion protein. The day before assay, cells were trypsinized and plated in 384-well tissue culture plates. The next day, culture media was removed from the wells and replaced with fresh media. Compound dilutions in DMSO/media were added to the wells and incubated at 37° C., 5% CO2.
Dox Induced VCAM-ss-Gluc Assay
Transfected cells were selected for resistance to the selectable markers Hygromycin and Blasticidin to create a stable cell line that contained the VCAMss+10aa/Gaussia Luciferase cDNA insert whose expression was regulated under the T-REx™ system. The day before assay, cells were trypsinized and plated in 384-well tissue culture plates. The next day, compound dilutions in DMSO/media containing doxycycline were added to the wells and incubated at 37° C., 5% CO2.

SMILES	IC50 [1]	EC50 [2]	IC50 [3]	EC50 [4]	IC50 (HER3ss-Gluc)	IC50 [5]	EC50 [6]	EC50 [7]	IC50 [8]
COc1ccc(Cn2cc(C[C@H]3C(=O)N[C@@H](CC(C)C)C(=O)N(C)[C@@H](C)C(=O)O[C@H](CCC#N)C(=O)N[C@@H](CC(C)C)C(=O)N(C)[C@@H](CC(C)C)C(=O)N[C@@H](CC(C)C)C(=O)N3C)c3ccccc32)cc1 [C-31] (HELM PEPTIDE1{L.[meA].[N#CCC[C@@H](O[*:1])C(=O)[*:2]].L.[meL].L.[COc1ccc(Cn2cc(C[C@@H](C(=O)[*:2])N(C)[*:1])c3ccccc32)cc1]}$PEPTIDE1,PEPTIDE1,1:R1-7:R2$$$V2.0)	4.06 µM	2.06 µM	0.38 µM	5.89 µM	0.264 µM	–	–	–	–
CC(C)C[C@@H]1NC(=O)[C@H](Cc2ccccc2)N(C)C(=O)[C@H](CC(C)C)NC(=O)[C@H](CC(C)C)N(C)C(=O)[C@H](CC(C)C)NC(=O)[C@@H](CCC#N)OC(=O)[C@H](C)N(C)C1=O [C-37] (HELM PEPTIDE1{L.[meA].[N#CCC[C@@H](O[*:1])C(=O)[*:2]].L.[meL].L.[meF]}$PEPTIDE1,PEPTIDE1,1:R1-7:R2$$$V2.0)	1.02 µM	8.81 µM	0.582 µM	6.36 µM	0.267 µM	18.5 µM	20.9 µM	6.29 µM	–
CCCC[C@@H]1NC(=O)[C@@H](CCC#N)OC(=O)[C@H](C)N(C)C(=O)[C@H](CC(C)C)NC(=O)[C@H](Cc2cn(Cc3ccc(C(F)(F)F)cc3)c3ccccc23)N(C)C(=O)[C@H](CC(C)C)NC(=O)[C@H](CC(C)C)N(C)C1=O [C-46] (HELM PEPTIDE1{L.[meA].[N#CCC[C@@H](O[*:1])C(=O)[*:2]].[Nle].[meL].L.[CN([C@@H](Cc1cn(Cc2ccc(C(F)(F)F)cc2)c2ccccc12)C(=O)[*:2])[*:1]]}$PEPTIDE1,PEPTIDE1,1:R1-7:R2$$$V2.0)	0.296 µM	0.64 µM	0.035 µM	3.12 µM	–	15 µM	–	3.07 µM	0.141 µM
CC(C)C[C@@H]1NC(=O)[C@H](CC(C)C)N(C)C(=O)[C@H](CC(F)(F)F)NC(=O)[C@@H](CCC#N)OC(=O)[C@H](C)N(C)C(=O)[C@H](CCC(F)(F)F)NC(=O)[C@H](Cc2cn(Cc3ccc(Br)cc3)c3ccccc23)N(C)C1=O [C-48] (cyclo(L[NMeTrp(1-(4-Br-benzyl))][Nva(5,5,5-F3)][NMeA][Butanoyl(2R-oxy,4-CN)][Abu(4,4,4-F3)][NMeL]))	0.133 µM	0.284 µM	0.027 µM	1.24 µM	–	1.34 µM	–	1.63 µM	0.036 µM
CC(C)C[C@@H]1NC(=O)[C@@H](CCC#N)OC(=O)[C@H](C)N(C)C(=O)[C@H](CCC(F)(F)F)NC(=O)[C@H](Cc2csc3ccccc23)N(C)C(=O)[C@H](CC(C)C)NC(=O)[C@H](CC(C)C)N(C)C1=O [C-50] (cyclo(L[NMeBta][Nva(5,5,5-F3)][NMeA][Butanoyl(2R-oxy,4-CN)]L[NMeL]))	0.644 µM	1.08 µM	0.201 µM	2.45 µM	–	9.06 µM	–	4.54 µM	0.03 µM
CC(C)C[C@@H]1NC(=O)[C@H](Cc2cn(-c3ccccc3)c3ccccc23)N(C)C(=O)[C@H](CC(C)C)NC(=O)[C@H](CC(C)C)N(C)C(=O)[C@H](CC(F)(F)F)NC(=O)[C@@H](CCC#N)OC(=O)[C@H](C)N(C)C1=O [C-51] (cyclo(L[NMeA][Butanoyl(2R-oxy,4-CN)][Abu(4,4,4-F3)][NMeL]L[X17]))	0.836 µM	1.07 µM	0.133 µM	3.44 µM	–	–	–	6.2 µM	0.072 µM
CC(C)C[C@@H]1NC(=O)[C@H](Cc2cn(Cc3cccc(Br)c3)c3ccccc23)N(C)C(=O)[C@H](CC(C)C)NC(=O)[C@H](CC(C)C)N(C)C(=O)[C@H](CC(C)C)NC(=O)[C@@H](CCC#N)OC(=O)[C@H](C)N(C)C1=O [C-77] (HELM PEPTIDE1{L.[meA].[N#CCC[C@@H](O[*:1])C(=O)[*:2]].L.[meL].L.[CN([C@@H](Cc1cn(Cc2cccc(Br)c2)c2ccccc12)C(=O)[*:2])[*:1]]}$PEPTIDE1,PEPTIDE1,1:R1-7:R2$$$V2.0)	–	2.5 µM	–	15.1 µM	0.787 µM	–	–	–	–

Source: patent US11339193B2, “CDP protein secretion inhibitors” (KEZAR LIFE SCIENCES, priority 2018, dated 2022)
